Reference: US10478455B2, “Therapeutic use of tetrathiomolybdate” (UCL BUSINESS LTD, priority 2010, dated 2019)

Legend:
[1] = test system: Wilson's disease; conditions: cited from earlier work
[2] = Study 4: plasma sulphide after i.v. TTM (monobromobimane-based HPLC assay); assay type: in vivo, rat
Procedure: This study investigated sulphide release from tetrathiomolybdate (TTM). Male Wistar rats were anaesthetized allowing insertion of carotid arterial and jugular venous lines for blood sampling and drug administration, respectively. Plasma sulphide levels (measured using a monobromobimane-based HPLC assay) were determined up to 2 h following bolus i.v. administration of TTM (10 mg/kg) or for 3 h after the onset of two continuous i.v. infusions (10 and 20 mg/kg/h).

[3] = test system: endotoxaemic animals; assay: Study 3: core temperature during endotoxaemia (lipopolysaccharide, Klebsiella pneumoniae); assay type: in vivo, rat
Procedure: FIG. 3: Protocol for endotoxaemia experiments. ETX is endotoxin, TTM is tetrathiomolybdate. Fluids: a 50:50 mix of colloid and crystalloid plus glucose. TTM was diluted in normal saline and administered as a 4 ml/kg bolus. Animals received a venous line for drug administration under anaesthesia. Endotoxaemia (which typically causes an increase in core temperature) was induced by intravenous administration of lipopolysaccharide (20 mg/kg, Klebsiella pneumoniae). TTM or vehicle was administered 1 h following the onset of endotoxaemia (FIG. 3; protocol).

[4] = test system: rat model of haemorrhage/reperfusion injury; assay: Study 6: rat model of haemorrhage/reperfusion injury; assay type: in vivo
Procedure: This study investigated effects of TTM in a rat model of haemorrhage/reperfusion injury. Male Wistar rats were anaesthetized for insertion of carotid arterial and jugular venous lines for blood removal and fluid/drug administration, respectively. After 30 min stabilization, 50% estimated circulating blood volume was removed from the arterial line over 15 min. Animals were monitored for a further 90 min prior to resuscitation, then randomized to receive either TTM or placebo (normal saline). TTM (10 mg/kg) was administered as an i.v. bolus (2 ml/kg). This was immediately followed by administration of shed blood over 15 min. In TTM-treated animals, the shed blood was supplemented with a further 2.5 mg/kg TTM; total dose 12.5 mg/kg. Placebo treated animals received equivalent volumes of fluid and administration of shed blood. Following resuscitation, both groups of animals received 10 ml/kg/h n-saline and were monitored up to 6 h post-resuscitation. […] Thus, TTM administration improves outcome following severe haemorrhage/reperfusion injury. This beneficial effect is potentially mediated by modulation of metabolism.

[5] = test system: Soleus muscle fibres; assay: Study 5: ex-vivo inhibition of oxygen consumption in permeabilized soleus muscle fibres (Clark electrode); conditions: TTM 0.5-2 mM, saponin-permeabilized rat soleus muscle fibres
Procedure: This study investivated ex-vivo Inhibition of oxygen consumption by TTM. Soleus muscle was removed from the hind limbs of male Wistar rats and preserved on ice in a physiological buffer solution. Muscle fibres were isolated with forceps and permeabilized with saponin. Muscle fibres were placed in a closed chamber containing a physiological solution and substrates for oxidative metabolism. Oxygen concentrations within the chamber were measured using a Clark electrode. The fall in oxygen concentration over time (gradient) reflects oxygen consumption by the tissue. Either vehicle or TTM (0.5-2 mM) was added to the chamber and oxygen consumption assessed. […] This further highlights the ability of TTM to decrease metabolism.

[6] = test system: Male Wistar rats; assay: Study 1: oxygen consumption and carbon dioxide production in awake rats in a metabolic cart; assay type: in vivo, rat
Procedure: Male Wistar rats (300 g) were anaesthetised and instrumented with a venous line for drug administration. The animals were placed into a metabolic cart and allowed to recover from anaesthesia. After 2 h, TTM was administered i.v. hourly at increasing doses (2, 5, 10 and 20 mg/kg). Oxygen consumption and carbon dioxide production were continually monitored for the duration of the experiment. TTM induced a clear drop in oxygen consumption and carbon dioxide production at 10 and 20 mg/kg (FIG. 1), compared to time-matched control animals (sham) receiving only vehicle (saline).

[7] = test system: Male Wistar rats; assay: Study 2: core temperature in anaesthetised rats; assay type: in vivo, rat; conditions: anaesthetised rats, 0.2, 2 and 20 mg/kg every 20 minutes; measured 20 minutes after the last dose, vs saline
Procedure: Animals were anaesthetised and instrumented as above. Under continuous anaesthesia, TTM was administered every 20 minutes at increasing doses (0.2, 2 and 20 mg/kg). Core temperature was measured at the beginning of the experiment (i.e. before TTM administration) and 20 minutes after the last dose of the drug (20 mg/kg).

[8] = awake rats, TTM i.v. hourly at increasing doses, effect at 10 and 20 mg/kg vs sham (saline)

Compound | neurological function in patients who present with neurologic disease [1] | plasma sulphide half-life ([2]; bolus i.v. 10 mg/kg) [min] | plasma sulphide levels ([2]; bolus i.v. 10 mg/kg, up to 2 h) | time to steady state of plasma sulphide ([2]; continuous i.v. infusion 10 and 20 mg/kg/h) [h] | plasma sulphide levels ([2]; continuous i.v. infusion 10 and 20 mg/kg/h, 3 h) | core temperature at highest dose ([3]; TTM 20 mg/kg, 1 h after onset of endotoxaemia) | hyperthermic response to endotoxin (core temperature) ([3]; TTM given 1 h after onset of endotoxaemia (LPS 20 mg/kg i.v.)) | 6 h survival post-resuscitation ([4]; TTM 10 mg/kg i.v. bolus plus 2.5 mg/kg in shed blood (total 12.5 mg/kg) vs placebo) | core temperature ([4]; TTM total dose 12.5 mg/kg, haemorrhage/reperfusion) | oxygen consumption ex vivo [5] | conscious level ([6]; awake rats during intravenous infusion of TTM) | carbon dioxide production [6, 8] | oxygen consumption [6, 8] | core temperature [7]
ammonium TTM | preserves neurological function |  |  |  |  |  |  |  |  |  |  |  |  | 
[SH-].[SH-].[S]=[Mo]=[S] [TTM, Tetrathiomolybdate] |  | 17 | high levels of sulphide in plasma | 2 | dose-dependent increase in plasma sulphide levels | induced significant hypothermia | ablated the hyperthermic response to endotoxin | significant improvement in 6 h survival | Core temperature fell | dose-dependent inhibition of oxygen consumption | conscious level was maintained | clear drop | clear drop | decrease in core temperature
